{
  "source": "patent US20260176302A1",
  "about": "“SARS-CoV-2 Binding Polypeptide” (Leyden Laboratories B.V., priority 2022, published 2026)",
  "test_system": "SARS-CoV-2 B.1.351 variant",
  "type": "in vivo, Mouse (Mus musculus)",
  "data": [
    {"sequence": "IINPRGDGTRYAQKFQG [SEQ ID NO: 082]", "values": [
      {"measurement": "survival time vs control group (log-rank test)", "setting": "[…], control median survival 7 days", "value": "significant improvement in survival time"},
      {"measurement": "clinical signs (score 0-4)", "setting": "mouse, in vivo", "value": "No clinical signs"},
      {"measurement": "survival proportion at day 21", "setting": "mouse, in vivo", "value": 100, "unit": "%"},
      {"measurement": "change in bodyweight (AUC) / weight loss vs control group", "setting": "mouse, in vivo, listed as test polypeptide", "value": "significant reduction in weight loss"}
    ]}
  ]
}
